Results from patent US4755527A, “Aryl substituted aminomethyl benzene derivatives” (priority 1985, dated 1988).
Read-outs that look alike come from different tables or passages of the source.

Key:
[1] = test system: ventricular arrhythmias induced by two-stage ligation of the left anterior descending coronary artery (Harris dog); test: Antiarrhythmic activity by coronary ligation in the Harris dog model (i.v. infusion); format: in vivo, dog (adult mongrel); conditions: for minimal effective dose: Canis lupus familiaris, read-out: Antiarrhythmic ED in Harris Dog
Text: The following examples describe the pharmacological evaluation of the compounds made in accordance with the present invention. In particular, these examples describe the evaluation of antiarrhythmic activity by coronary ligation in the well known Harris dog model. Ventricular arrhythmias were induced in adult mongrel dogs (10-15 kg) of either sex by two-stage ligation of the left anterior descending coronary artery. […] The test compound in saline was infused intravenously at a cumulative rate of […] to 1.2 mg/kg/min (base) unitl normal sinus rhythm or toxicity occurred. Normal sinus rhythm was defined as 90-100% normal complexes over a 5 min period.

Guinea Pig Ileum = test: In vitro evaluation of anticholinergic activity in the isolated guinea pig ileum; set-up: species or system guinea pig (male Hartley); conditions: for inhibition at 4 µg/mL: Cavia porcellus, read-out: Anticholinergic Inhibition of Guinea Pig Ileum (% inhibition at 4 mg/L)
Method: The following examples describe the in vitro evaluation of anticholinergic activity in the isolated guinea pig ileum. Fasted, male Hartley guinea pigs (300-400 g) were killed by a blow to the head. […] One end of the ileal strip was impaled onto a platinum wire electrode; and the other end was tied to a stationary glass rod. Basal tension was set at 0.1-0.3 g and peak developed tension in response to field stimulation (100-150 V, 10 msec pulse duration, 0.2 Hz) was measured with a tension transducer.

patients = conditions: cited from earlier work
cardiac cells = conditions: cited from earlier work
[2] = test system: ventricular arrhythmias induced by ouabain (Ouabain dog); test: Antiarrhythmic activity in the Ouabain dog model (i.v. infusion); format: in vivo; conditions: for minimal effective dose: Canis lupus familiaris, read-out: Antiarrhythmic ED in Ouabain Dog
Method: The following examples describe the pharmacological evaluation of the compounds in accordance with the present invention. In particular, these examples describe the evaluation of antiarrhythmic activity in the Oubain dog model. […] The test compound was infused intravenously in saline at a rate of about 0.3 to about 5 mg/kg/min until normal sinus rhythm or toxicity occurred. Normal sinus rhythm was defined as 90-100% normal complexes over a 5 minute period.

[3] = Harris dog, IV infusion, ED is the effective dose required to sustain normal sinus rhythm
[4] = 4 mg/L, inhibition of field-stimulated contractile tension
[5] = administered to patients for the management of arrhythmias
[6] = Ouabain dog, IV infusion, ED is the effective dose required to sustain normal sinus rhythm

Molecule | minimal effective dose [1, 3] [mg/kg] | inhibition at 4 µg/mL (Guinea Pig Ileum; [4]) [%] | minimal effective dose [2, 6] [mg/kg] | other results
2,6-bis(pyrrolidinylmethyl)-4-benzyl-phenol [XXXVI] | – | – | – | Antiarrhythmic ED in Harris Dog [1, 3]: low activity; Anticholinergic Inhibition of Guinea Pig Ileum (% inhibition at 4 mg/L) (Guinea Pig Ileum; [4]): 14%
C=C[C@H]1C[N@@]2CC[C@H]1C[C@@H]2[C@@H](O)c1ccnc2ccc(OC)cc12 (stereo in doubt) [Quinidine, 6-methoxy-α-(5'-vinyl-2-quinuclidinyl)-4-quindinemethanol] | 10.1 | 62 | – | adverse side-effects in patients (patients; human, in vivo): cardiotoxicity, diarrhea, nausea, vomiting, fever, hypertension and depression of myocardial contractility; anticholinergic activity (in words, background) (cardiac cells): indirect anticholinergic actions; effect on impulse formation, conduction velocity and refractory period of cardiac cells (cardiac cells): depress impulse formation, slow conduction velocity, and increase the duration of the refractory period of cardiac cells
Oc1c(CN2CCCC2)cc(Nc2ncnc3ccccc23)cc1CN1CCCC1 [Changrolin, 4-[3',5'-bis[N-pyrrolidinylmethyl]-4'-hydroxyanilino]quinazoline, reference compound] | 10.3 | 43 | 5.5 | adverse side-effects in patients (patients; [5]): skin discoloration in some patients; antiarrhythmic effectiveness (in words, background) (patients; human, in vivo): effective antiarrhythmic agent; anticholinergic activity (in words, background) (cardiac cells): substantial anticholinergic activity
CC(C)N(CCC(C(N)=O)(c1ccccc1)c1ccccn1)C(C)C (stereo not drawn) [Disopyramide, α[2-(diisopropylamino)-ethyl]α-phenol-2-pyridineacetamide, reference compound] | – | – | – | minimal effective dose ([1]; iv): 6.8 mg/kg; adverse side-effects in patients (patients; [5]): dryness of the mouth, blurred vision, constipation, and urinary retention, and depression of myocardial contractility; anticholinergic activity (in words, background) (cardiac cells): indirect anticholinergic actions; effect on impulse formation, conduction velocity and refractory period of cardiac cells (cardiac cells): depress impulse formation, slow conduction velocity, and increase the duration of the refractory period of cardiac cells; inhibition at 4 µg/mL (Guinea Pig Ileum): 81%; minimal effective dose ([2]; iv): 4.4 mg/kg
Oc1c(CN2CCCC2)cc(OCc2ccccc2)cc1CN1CCCC1 [Example I, 4-benzyloxy-2,6-bis(pyrrolidinylmethyl)phenol] | 4.5 | 62 | 1.5 | –
O=C(c1ccccc1)c1cc(CN2CCCC2)c(O)c(CN2CCCC2)c1 [Example II, 4-hydroxy-3,5-bis(pyrrolidinylmethyl)benzophenone] | 11 | 9 | 1.9 | –
O=C(Nc1cc(CN2CCCC2)c(O)c(CN2CCCC2)c1)c1ccccc1 [Example III, N-benzoyl-3,5-bis(N-pyrrolidinylmethyl)-4-hydroxyaniline] | 5 | 35 | 3.4 | –
CC(=O)Nc1cc(CN2CCCC2)c(O)c(CN2CCCC2)c1 [Example XXIX, 3,5-bis(N-pyrrolidinylmethyl)-4-hydroxyacetanilide] | – | – | – | Antiarrhythmic ED in Harris Dog [1, 3]: inactive
Nc1cc(CN2CCCC2)c(O)c(CN2CCCC2)c1 [Example XXX, 3,5-bis(N-pyrrolidinylmethyl)-4-hydroxyaniline] | – | 3 | – | Antiarrhythmic ED in Harris Dog [1, 3]: inactive
O=C(Nc1cc(CN2CCCC2)c(O)c(CN2CCCC2)c1)c1ccc(Cl)cc1 [IV, N--(4-chlorobenzoyl)-3,5,-bis(N--pyrrolidinylmethyl)-4-hydroxyaniline] | 7 | 49 | 1.5 | –
Cc1ccc(C(=O)Nc2cc(CN3CCCC3)c(O)c(CN3CCCC3)c2)cc1 [V, N--(4-methylbenzoyl)-3,5,-bis(N--pyrrolidinylmethyl)-4-hydroxyaniline] | 15 | 22 | 3 | –
O=C(Nc1cc(CN2CCCC2)c(O)c(CN2CCCC2)c1)c1ccc(C(F)(F)F)cc1 [XIII, N--(4-trifluoromethylbenzoyl)-3,5,-bis(N--pyrrolidinylmethyl)-4-hydroxyaniline] | 9 | 43 | 5.25 | –
Cc1ccccc1C(=O)Nc1cc(CN2CCCC2)c(O)c(CN2CCCC2)c1 [XVI, N--(2-methylbenzoyl)-3,5,-bis(N--pyrrolidinylmethyl)-4-hydroxyaniline] | – | 9.4 | 2 | –
O=C(Nc1cc(CN2CCCC2)c(O)c(CN2CCCC2)c1)c1c(Cl)cccc1Cl [XVII, N--(2,6,dichlorobenzoyl)-3,5,-bis(N--pyrrolidinylmethyl)-4-hydroxyaniline] | – | 14.3 | 2 | –
COc1cc(C(=O)Nc2cc(CN3CCCC3)c(O)c(CN3CCCC3)c2)cc(OC)c1OC [XVIII] | – | 5.9 | – | Antiarrhythmic ED in Ouabain Dog [2, 6]: inactive
O=C(NCc1cc(CN2CCCC2)c(O)c(CN2CCCC2)c1)c1ccc(Cl)cc1 [XXIII, N--(4-chlorobenzoyl)-3,5-bis(pyrrolidinylmethyl)-4-hydroxybenzylamine] | – | 56 | 3.8 | –
O=C(NCc1cc(CN2CCCC2)c(O)c(CN2CCCC2)c1)c1ccccc1C(F)(F)F [XXIV, N--(2-trifluoromethylbenzoyl)-3,5-bis(pyrrolidinylmethyl)-4-hydroxybenzylamine] | – | 8.5 | 1.7 | –
O=C(NCc1cc(CN2CCCC2)c(O)c(CN2CCCC2)c1)c1cccc(C(F)(F)F)c1 [XXV, N--(3-trifluoromethylbenzoyl)-3,5-bis(pyrrolidinylmethyl)-4-hydroxybenzylamine] | – | 72 | 5.5 | –
O=C(NCc1cc(CN2CCCC2)c(O)c(CN2CCCC2)c1)c1ccccc1Cl [XXVI, N--(2-chlorobenzoyl)-3,5-bis(pyrrolidinylmethyl)-4-hydroxybenzylamine] | – | 18 | 2.3 | –
O=C(NCc1cc(CN2CCCC2)c(O)c(CN2CCCC2)c1)c1cccc(Cl)c1 [XXVII, N--(3-chlorobenzoyl)-3,5-bis(pyrrolidinylmethyl)-4-hydroxybenzylamine] | – | 78 | 9.8 | –
Nc1ccc(C(=O)Nc2cc(CN3CCCC3)c(O)c(CN3CCCC3)c2)cc1 [XXVIII, N-(4-aminobenzoyl)-3,5-bis(pyrrolidinylmethyl)-4-hydroxyaniline] | – | 0 | 4.5 | –
CN(C(=O)c1ccccc1)c1cc(CN2CCCC2)c(O)c(CN2CCCC2)c1 [XXXIV] | – | 16 | 16 | –
O=C(NCc1cc(CN2CCCC2)c(O)c(CN2CCCC2)c1)c1ccc(C(F)(F)F)cc1 [XXXV, N-(4-trifluoromethyl)-3,5-bis(pyrrolidinylmethyl)-4-hydroxybenzylamine] | – | 49 | 4.5 | –
